Read-outs that look alike come from different tables or passages of the source.
What was measured:
Assay type in all cases: cell-based, human
[1] = test system: MCF-7 breast cancer cells; assay: Cell growth inhibition (cell number, total nucleic acid content); details: for Inhibition of proliferation, in words: MCF-7 cells, 1, 3 or 6 days, FIG. 7; for IC50: MCF-7 cells, average of the day 3 and day 6 determinations, read-out: Inhibition of cell proliferation (IC50)
Procedure: Human colon carcinoma COLO205 and HT-29 cell lines (American Type Culture Collection (ATTC), Manassas, Va.) and the leukemia cell line HL-60 were maintained at 37° C. in 5% CO2 air in RPMI 1640 medium supplemented with 10% heat-inactivated fetal bovine serum (Gibco BRL, Grand Island, N.Y.), 100 units/mL penicillin, 100 μg/mL streptomycin and 2 mM 1-glutamine. The human gastric carcinoma AGS cell line (CCRC 60102), obtained from the Food Industry Research and Development Institute (Hsinchu, Taiwan), was maintained as described above, except that DMEM/F 12 was used as the medium rather than the RPMI 1640 medium. The human breast carcinoma MCF-7 cell line MCF-7 (ATTC) was cultured in RPMI 1640 medium supplemented with 5% fetal calf serum at 37° C. in a humidified atmosphere of 5% CO2 in air. The mouse macrophage cell line RAW 264.7 was maintained in RPMI 1640 supplemented with 100 U/ml penicillin, 100 μg/ml streptomycin, and 10% heat-inactivated fetal calf serum.
Cancer cells (2×10^5) were plated in 12-well Petri dishes. The next day, the medium was changed and treated with different concentration of the test compounds or compositions for 24 h. Where individual compounds were to be tested, stock solutions of the compound was prepared to contain 200 μM of the individual hydroxylated or non-hydroxylated PMF in dimethylsulfoxide (DMSO). Control cells were treated with DMSO to a final concentration of 0.05% (v/v). Depending on the objective of the particular experiment, cells were treating with test compound or composition for 1, 3 or 6 days. At the end of incubation, cells were harvested for cell count using a hemocytometer and measuring the cellular total nucleic acid content with the CyQUANT Cell Proliferation Assay Kit (Molecular Probes).
FIG. 7 presents cell number data, where cell numbers of cells treated to PMFs are presented as a percentage of control cells. The IC50 values for inhibition of cell proliferation are presented in Table 15 in which the concentration inhibiting cell growth by 50%, IC50, is presented as the average of the day 3 and day 6 determinations. The apparent minimal effective concentrations, ECmin, for induction of cell death, apoptosis, and increase in [Ca^2+]i are also indicated.

[2] = test system: MCF-7 breast cancer cells; assay: Apoptosis assay (Annexin V, Hoechst 33342); details: MCF-7 cells; for Apoptosis by morphological criteria (nuclear fragmentation): Hoechst 33342
Procedure: (§1) MCF-7 cells were maintained and assayed as described in Section 8.4 above. Apoptosis was evaluated by the plasma membrane and nuclear changes as previously described in Sergeev (2004) J. Steroid Biochem. Mol. Biol. 89-90:419-425. Briefly, An Annexin V assay (ALEXA FLUOR 488 Annexin V Assay Kit; Molecular Probes) was used for detection of the apoptotic plasma membrane (loss of membrane asymmetry due to phosphatidylserine translocation). Fluorescence (485 nm excitation, 530 nm emission) of the Annexin V-abeled cells grown in 96-well plates was measured in the FLx800 plate reader with KC software (BioTek) and expressed in fluorescence units per 1×10^3 cells. Propidium iodide uptake was used to evaluate non-apoptotic and apoptotic cell death (the dye permeates plasma membrane and stain nucleic acids of both necrotic and the late apoptotic cells). Fluorescence (530 nm excitation, 620 nm emission) of the propidium iodide-labeled cells was also measured in the FLx800 reader. Additionally, HOECHST 33342 and ALEXA FLUOR 488 Annexin V were employed to visualize apoptotic nuclei (nuclear fragmentation) and the apoptotic plasma membrane, respectively. Fluorescence microscopy of HOECHST 33342- and Annexin V-labeled cells was performed as described below for the cellular Ca^2+ and immunofluorescence imaging.

[3] = test system: MCF-7 breast cancer cells; assay: Cell death by propidium iodide uptake; details: MCF-7 cells; for Cell death (propidium iodide), in words: evident at day 6, FIG. 9
Procedure: as §1

[4] = test system: [Ca^2+]i in MCF-7 cells; assay: Intracellular calcium measurement (fluo-3); details: for Intracellular Ca^2+ levels, in words: 50-100 μM, day 6; for Basal level of [Ca^2+]i, in words: fluo-3/AM, day 3 and 6, dose-dependent
Procedure: Concentration of intracellular free Ca^2+ ([Ca^2+]i) was measured with Ca^2+ indicators fura-2 and fluo-3, as described in detail previously, for example, in Sergeev (2004) J. Steroid Biochem. Mol. Biol. 89-90:419-425. For [Ca^2+]i measurements with fluo-3, cells grown in the 96-well, black-wall plates were loaded with 2 μM of fluo-3/AM (Molecular Probes) in Dulbecco's PBS (D-PBS) supplemented with 0.1% DMSO for 40 min at 37° C. Fluorescence (485 nm excitation, 530 nm emission) was measured in the FLx800 plate reader, as described above. For [Ca^2+]i measurements with fura-2, cells grown on coverslips were loaded with 1 μM of fura-2/AM (Molecular Probes) in D-PBS supplemented with 0.1% DMSO and 0.01% Pluronic F-127 for 40 min at 37° C. The dynamics of intracellular Ca^2+ was assessed with cells in the microincubation chamber (37.0±0.2° C.) on a NIKON ECLIPSE TE-300 inverted microscope equipped for epifluorescence, ratiometric, digital imaging. The images were captured using SUPERFLUOR 40× 1.3 NA oil-immersion objective (Nikon) and COOLSNAPFX digital CCD camera (Photometrics), ratioed (340/380 nm excitation, 510 nm emission) on a pixel-by-pixel basis, and stored for analysis. Image analysis was performed using METAFLUOR 6.3 software (Molecular Devices/Universal Imaging).

[5] = test system: calpain; assay: Calpain activity assay (fluorogenic substrate, immunofluorescence); details: MCF-7 cells; for Calpain activation, in words: day 3 or 6, FIG. 12A, 13A,B
Procedure: (§2) Calpain and caspase-12 activities were measured with the cell-permeable fluorogenic peptide substrates t-Boc-Leu-Met-CMAC (50 μM; CMAC, 7-amino-4-chloromethyl coumarin; Molecular Probes) and Ala-Thr-Ala-Asp-AFC (50 μM; AFC, 7-amino-4-trifluoromethyl coumarin; Caspase-12 Fluorometric Assay Kit, BioVision), respectively. See, e.g., Roser and Gores (2000) Meth. Mol. Biol. 144:2452-2466. Polyclonal antibodies directed against caspase-12 (BioVision) and monoclonal antibodies directed against the calpain small (cleaved) subunit (Chemicon) were used to evaluate activation of these proteases. For immunofluorescence labeling, the fixed and permeabilized cell preparations were pre-incubated with non-specific serum for 20 min, incubated for 1 h at 37° C. or overnight at 4° C. with the primary antibodies and 1 h at room temperature with secondary antibodies using ALEXA FLUOR-488 signal-amplification mouse antibodies (Molecular Probes) and FITC- or Texas Red-conjugated anti-rabbit and anti-mouse IgG (Molecular Probes). Fluorescence microscopy was carried out as described above for Ca^2+ imaging. Image analysis and measurement of fluorescence intensity was performed using MetaMorph 6.3 software (Molecular Devices/Universal Imaging), as described previously in Sergeev (1996) Endocrine 5: 335-340.

[6] = test system: caspase-12; assay: Caspase-12 activity assay (fluorogenic substrate, immunofluorescence); details: MCF-7 cells, day 3 or 6, FIG. 12B, 13C,D
Procedure: as §2

[7] = day 3 and 6 of treatment, dose-dependent

Row | IC50 ([1]; Homo sapiens, MCF7) [µM] | Structure (SMILES) | Inhibition of proliferation, in words [1] | IC50 [1] [µM] | Induction of cell apoptosis (ECmin, apparent minimal effective concentration) [2] [µM] | Proapoptotic activity (Annexin V), in words ([2]; 25-100 μM, day 6 of treatment) | Apoptosis by morphological criteria (nuclear fragmentation) [2] | Induction of cell death (ECmin, apparent minimal effective concentration) [3] [µM] | Cell death (propidium iodide), in words [3] | Increase in [Ca^2+]i (ECmin, apparent minimal effective concentration) [4] [µM] | Intracellular Ca^2+ levels, in words [4] | Number of cells with activated calpain, in words ([5]; day 3 of treatment) | Calpain activation, in words [5] | Caspase-12 activation, in words [6] | Induction of apoptosis (Annexin V), in words ([2]; 50-100 μM, day 6 of treatment) | Induction of apoptosis (Annexin V), in words [2, 7] | Basal level of [Ca^2+]i, in words [4]
1 |  | COc1ccc(-c2oc3c(OC)c(OC)c(OC)c(OC)c3c(=O)c2OC)cc1OC [D, 3,5,6,7,8,3,4-heptamethoxyflavone, reference compound] | inhibited proliferation of MCF-7 breast cancer cells in a dose- and time-dependent fashion | > 50 | >50 | low proapototic activity | confirmed apoptosis | >50 | not effective in inducing non-apoptotic cell death | >50 | only a trend in increasing intracellular Ca^2+ levels | a trend in increasing the number of cells with activated calpain | No significant calpain and caspase-12 activation | No significant calpain and caspase-12 activation |  |  | 
2 | > 50 | COc1ccc(-c2cc(=O)c3c(OC)c(OC)c(OC)cc3o2)cc1OC [Compound 7, 5,6,7,3′,4′-pentamethoxyflavone, reference compound] | inhibited proliferation of MCF-7 breast cancer cells in a dose- and time-dependent fashion |  | >50 |  |  | >50 | not effective in inducing non-apoptotic cell death | >50 | only a trend in increasing intracellular Ca^2+ levels |  | No significant calpain and caspase-12 activation | No significant calpain and caspase-12 activation | only a trend in inducing apoptosis |  | 
3 | 2.5 | COc1ccc(-c2oc3c(OC)c(OC)c(OC)c(O)c3c(=O)c2OC)cc1OC [Compound C, 5-hydroxy-3,6,7,8,3′,4′-hexamethoxyflavone] | inhibited proliferation of MCF-7 breast cancer cells in a dose- and time-dependent fashion |  | 1.56 |  | confirmed apoptosis | 3.125 | induced death of MCF-7 breast cancer cells | 1.56 |  |  | activation | activation |  | induced apoptosis | induced an increase in the basal level of [Ca^2+]i
4 | 10.5 | COc1ccc(-c2cc(=O)c3c(OC)c(OC)c(OC)cc3o2)cc1O [Compound 5, 3′-hydroxy-5,6,7,4′-tetramethoxyflavone] | inhibited proliferation of MCF-7 breast cancer cells in a dose- and time-dependent fashion |  | 3.125 |  | confirmed apoptosis | 6.25 | induced death of MCF-7 breast cancer cells | 3.125 |  |  | activation | activation |  | induced apoptosis | induced an increase in the basal level of [Ca^2+]i

— patent US20140039044A1, “Hydroxylated Polymethoxyflavone Compositions” (WLLGEN, INC., priority 2006, published 2014)
